Measurements published in patent publication US20250019357A1, “[…] MORPHIC FORMS AND MIXTURES FOR THE TREATMENT OF MENTAL DISORDERS OR MENTAL ENHANCEMENT” (TACTOGEN INC, priority 2021, published 2025).
Counter-ions that a name gives are not always drawn. Like-named read-outs stand apart in the source and are kept apart here.

Key:
5-HT1BR = 5-HT1BR (Homo sapiens (Human), UniProt P28222); type: cell-based; details: for Hill Coef.: 5-HT1BR agonist curve; for EC50: Table 3
[1] = Scale-up and solid-state stability study; type: physicochemical; details: ~10 mg staged at 40° C./75% RH for 1 day, analyzed by PXRD
Protocol: Scale up study of selected S-5-MAPB salts (Patterns 1A, 2A, and 10A) to −70 mg was completed. […] All three samples were then tested for their solid-state stability as shown below in Table 17. (API=5-MAPB HCl)
Scale up study of selected salts (S-5-MAPB Patterns 1A, 4A, and 8A) to −250 mg completed. Patterns 1A, 4A, and 8A were all scaled up successfully. All three samples were then tested for their solid-state stability as shown below in Table 19. (API=S-5-MAPB Pure Enantiomer)

SERT [2] = biological target: T1, SERT (Rattus norvegicus (Rat), UniProt P31652); assay: In vitro rat synaptosome serotonin uptake inhibition assay (Examples 9, 58); type: biochemical; details: rat synaptosomes
Description: (§1) FIG. 7A is a graph showing results from an in vitro rat synaptosome serotonin uptake inhibition assay. […] Details and procedural information for this assay are described in Example 9. The x-axis is the log [dose] concentration measured in molar and the y-axis is the [^3H]-labeled 5-HT reuptake measured in percent.
as §1, with “176” for “7A”, “58.” for “9.”, “x-axis” for “x-axis is”, “concentration is” for “concentration”, “Molar units” for “molar”, “percent of maximum produced by the comparison releaser.” for “percent.”

SERT [3] = biological target: T1, SERT; assay: In vitro rat synaptosome serotonin release (efflux) assay (Examples 9, 58); type: biochemical; details: rat synaptosomes
Description: as §1, with “7B” for “7A”, “release” for “uptake inhibition”, “release” for “reuptake”
as §1, with “177” for “7A”, “release” for “uptake inhibition”, “58.” for “9.”, “x-axis” for “x-axis is”, “release” for “reuptake”

[4] = biological target: human 5-HT transporter (hSERT) (Homo sapiens (Human), UniProt P31645); assay: Human serotonin transporter  assay ([3H]imipramine radioligand, CHO cells); type: binding
Protocol: EXAMPLE 8: Human Serotonin Transporter (SERT, SLC6A4) Functional Antagonist Uptake Assay
Benzofuran derivatives were evaluated for inhibiting the human 5-HT transporter (hSERT) as expressed in CHO cells using an antagonist radioligand assay (Tatsumi, M. et al. (1999), Eur. J. Pharmacol., 368: 277-283). […] Test compounds were assayed in three trials at […], and 0.94868 μM.
EXAMPLE 57: Human Serotonin Transporter (SERT, SLC6A4) Functional Antagonist Uptake Assay

[5] = biological target: serotonin (5-HT) transporter (SERT) (Rattus norvegicus (Rat), UniProt P31652); assay: Rat synaptosome SERT uptake inhibition assay ([3H]5-HT)
[6] = Human self-reported effects of non-racemic 5-MAPB (Good, Bad, Open ratings); type: in vivo
Protocol: The effects of non-racemic 5-MAPB HCl were tested by a healthy human individual at four different ratios of enantiomers plus the racemate as a control: • 54 mg S and 0 mg R (100% S) • 47 mg S and 7 mg R (about 87% S) • 36 mg S and 18 mg R (about 67% S) • 27 mg S and 27 mg R (about 50% S) • 7 mg S and 47 mg R (about 13% S)
Two trials were carried out at each ratio, except for 13% S where only one was conducted. Trials were at least 72 h apart.
5-MAPB HCl was dissolved in 1.5 ml distilled water and consumed in two halves, separated by 1 hour. Starting at 3 hours after administration, tablets of 250 mg ascorbic acid and capsules of 300 mg alpha lipoic acid were taken ad libitum (approximately every hour for a total of 4 administrations).
Measurements were made approximately every 2 hours until post 6 hours and the maximum ratings per session were analyzed. Additionally, an index of good drug effects versus emotional openness, calculated as (Open−Good)/(200, the theoretical maximum of Open+ Good), was constructed at each time point and the maximum analyzed. In healthy volunteers, Good Ratings can be considered a predictor of abuse liability. Accordingly, this index can be used as an indicator of the balance of a therapeutic effect (emotional openness) vs abuse liability.
Historic data of two trials 50 mg RS-5-MAPB Cl from the same individual were also included in the analysis for comparison.
Table 24 below indicates maximums for individual measures and for the open vs good index, averaged from all sessions (N=2, except for 13% S-5-MAPB where N=1). Qualitatively, all conditions produced subtle emotional effects, including decreases in negative affect and increases in stability of mood, without sensory distortion.

[7] = biological target: Human Trace Amine Associated Receptor (hTAAR1) (Homo sapiens (Human), UniProt Q96RJ0); assay: hTAAR1 agonist assay (DiscoverX cAMP Hunter); type: cell-based; details: for hTAAR1 maximum detected effects: seven concentrations between 0.05692 and 60 μM
[8] = biological target: dopamine transporter (DAT) (Rattus norvegicus (Rat), UniProt P23977); assay: Rat synaptosome DAT release assay ([3H]MPP+); details: read-out: dopamine Emax (maximum dopamine increase relative to reference drug)
[9] = S-5-MAPB salt scale-up (~250 mg, API=S-5-MAPB Pure Enantiomer)
[10] = Cheng Prusoff equation, read-out: SERT Ki
[11] = read-out: Inhibition of [3H]5-HT Uptake at SERT IC50, rat brain synaptosomes, 5 nM [3H]5-HT
[12] = one healthy human, 54 mg total 5-MAPB HCl oral in two halves 1 hour apart, session maximum averaged (N=2, 13% S N=1)
[13] = S-5-MAPB salt scale-up (~70 mg, API=5-MAPB HCl)

## CNC(C)C(=O)c1ccc2occc2c1 (racemic) [rac-BK-5-MAPB, 1-(benzofuran-5-yl)-2-(methylamino)propan-1-one hydrochloride]
5-HT1BR
  Hill Coef.: 0.91

## CCC(NC)C(=O)c1ccc2occc2c1 (racemic) [rac-BK-5-MBPB, 1-(benzofuran-5-yl)-2-(methylamino) butan-1-one]
5-HT1BR
  Hill Coef.: 1.01

## CNC(C)C(=O)c1ccc2ccoc2c1 (racemic) [rac-BK-6-MAPB, 1-(benzofuran-6-yl)-2-(methylamino)propan-1-one hydrochloride]
5-HT1BR
  Hill Coef.: 0.99

## CN[C@@H](C)Cc1ccc2occc2c1.O=P(O)(O)O (single isomer, unassigned) [H3PO4 (Pattern 4A), 5-MAPB Enantiomer H3PO4]
[1]; [9]
  PXRD Pattern (40° C./75% RH sample): 4A

## CN[C@@H](C)Cc1ccc2occc2c1.O=C(O)C(=O)O (single isomer, unassigned) [Oxalic (Pattern 8A), 5-MAPB Enantiomer oxalic acid]
[1]; [9]
  PXRD Pattern (40° C./75% RH sample): 8A

## CNC(C)C(=O)c1ccc2occc2c1 (single isomer, unassigned; (+)) [(+)-Bk-5-MAPB, 1-(benzofuran-5-yl)-2-(methylamino) propan-1-one]
SERT [2]
  [3H]-labeled 5-HT reuptake (serotonin uptake inhibition): rapidly increases extracellular serotonin by inhibiting reuptake
SERT [3]
  [3H]-labeled 5-HT release: rapidly increases extracellular serotonin by stimulating release
5-HT1BR
  Hill Coef.: 1.05

## CNC(C)C(=O)c1ccc2ccoc2c1 (single isomer, unassigned; (+)) [(+)-Bk-6-MAPB, 1-(benzofuran-6-yl)-2-(methylamino) propan-1-one]
SERT [2]
  [3H]-labeled 5-HT reuptake (serotonin uptake inhibition): rapidly increases extracellular serotonin by inhibiting reuptake
SERT [3]
  [3H]-labeled 5-HT release: rapidly increases extracellular serotonin by stimulating release
[4]
  IC50: 110000 nM
  Ki: 51000 nM

## CCC(NC)C(=O)c1ccc2occc2c1 (single isomer, unassigned; (-)) [(−)-BK-5-MBPB, 1-(benzofuran-5-yl)-2-(methylamino) butan-1-one]
5-HT1BR
  Hill Coef.: 1.6241

## CNC(C)C(=O)c1ccc2occc2c1 (single isomer, unassigned; (-)) [(−)-Bk-5-MAPB, 1-(benzofuran-5-yl)-2-(methylamino) propan-1-one]
SERT [2]
  [3H]-labeled 5-HT reuptake (serotonin uptake inhibition): rapidly increases extracellular serotonin by inhibiting reuptake
SERT [3]
  [3H]-labeled 5-HT release: rapidly increases extracellular serotonin by stimulating release
5-HT1BR
  Hill Coef.: 1.5

## CNC(C)C(=O)c1ccc2ccoc2c1 (single isomer, unassigned; (-)) [(−)-Bk-6-MAPB, 1-(benzofuran-6-yl)-2-(methylamino) propan-1-one]
SERT [2]
  [3H]-labeled 5-HT reuptake (serotonin uptake inhibition): rapidly increases extracellular serotonin by inhibiting reuptake
SERT [3]
  [3H]-labeled 5-HT release: rapidly increases extracellular serotonin by stimulating release
5-HT1BR
  Hill Coef.: 0.8339

## CN[C@H](C)Cc1ccc2ccoc2c1 (stereo in doubt) [Pattern R-6-MAPB, 1-(benzofuran-6-yl)-N-methylpropan-2-amine]
SERT [2]
  [3H]-labeled 5-HT reuptake (serotonin uptake inhibition): rapidly increases extracellular serotonin by inhibiting reuptake
SERT [3]
  [3H]-labeled 5-HT release: rapidly increases extracellular serotonin by stimulating release
5-HT1BR
  Hill Coef.: 1.14
  EC50: 1480 nM
[4]; [10]
  Ki: 11000 nM
[5]; [11]
  IC50: 623 ± 31.2 nM

## CN[C@@H](C)Cc1ccc2occc2c1 [100% S-5-MAPB]
[6]; healthy human individual, 54 mg S and 0 mg R
  duration of effects: effects of less duration than conditions that included the R-enantiomer
[6]; [12]
  Bad (bad drug effects), maximum 0-100 rating: 1%
  Good (good drug effects), maximum 0-100 rating: 55%
  Open (emotional openness), maximum 0-100 rating: 65%

## Br.CNC(C)Cc1ccc2occc2c1 (stereo not shown) [HBr (Pattern 2A), 5-MAPB HBr]
[1]; [13]
  PXRD Pattern (40° C./75% RH sample): Pattern 2B

## CNC(C)Cc1ccc2occc2c1.Cl (stereo not shown) [HCl (Pattern 1A), 5-MAPB HCl]
[1]; [13]
  PXRD Pattern (40° C./75% RH sample): Pattern 1A
[1]; [9]
  PXRD Pattern (40° C./75% RH sample): 1A

## CNC(C)Cc1ccc2occc2c1.O=C(O)/C=C\C(=O)O (stereo not shown) [Maleic (Pattern 10A), 5-MAPB maleic acid]
[1]; [13]
  PXRD Pattern (40° C./75% RH sample): 10A

## CN[C@H](C)Cc1ccc2occc2c1 [Pattern R-5-MAPB, R-5-MAPB]
SERT [2]
  [3H]-labeled 5-HT reuptake (serotonin uptake inhibition): rapidly increases extracellular serotonin by inhibiting reuptake
SERT [3]
  [3H]-labeled 5-HT release: rapidly increases extracellular serotonin by stimulating release
5-HT1BR
  Hill Coef.: 1.13
  EC50: 981 nM
[4]; [10]
  Ki: 1200 nM
[5]; [11]
  IC50: 150 ± 8.6 nM

## CC[C@H](Cc1ccc2ccoc2c1)NC [Pattern R-6-MBPB, R-6-MBPB]
[7]
  hTAAR1 maximum detected effects: 0.9%
[8]
  Emax: ~25%
[5]
  IC50: 702 ± 262 nM

## CN[C@@H](C)Cc1ccc2occc2c1 [Pattern S-5-MAPB, S-5-MAPB]
SERT [2]
  [3H]-labeled 5-HT reuptake (serotonin uptake inhibition): rapidly increases extracellular serotonin by inhibiting reuptake
SERT [3]
  [3H]-labeled 5-HT release: rapidly increases extracellular serotonin by stimulating release
5-HT1BR
  Hill Coef.: 1.08
  EC50: 161 nM
[4]; [10]
  Ki: 1500 nM
[5]; [11]
  IC50: 60.4 ± 2.8 nM

## CN[C@@H](C)Cc1ccc2ccoc2c1 [Pattern S-6-MAPB, S-6-MAPB]
SERT [2]
  [3H]-labeled 5-HT reuptake (serotonin uptake inhibition): rapidly increases extracellular serotonin by inhibiting reuptake
SERT [3]
  [3H]-labeled 5-HT release: rapidly increases extracellular serotonin by stimulating release
5-HT1BR
  Hill Coef.: 1.21
  EC50: 102 nM
[4]; [10]
  Ki: 3100 nM
[5]; [11]
  IC50: 90.9 ± 5.9 nM

## CC[C@@H](Cc1ccc2ccoc2c1)NC [Pattern S-6-MBPB, S-6-MBPB]
[7]
  hTAAR1 maximum detected effects: 0.6%
[8]
  Emax: 72%
[5]
  IC50: 217 ± 45.8 nM

## CCC(Cc1ccc2occc2c1)NC (stereo not shown) [RS-5-MBPB, 1-(benzofuran-5-yl)-N-methylbutan-2-amine]
SERT [2]
  [3H]-labeled 5-HT reuptake (serotonin uptake inhibition): rapidly increases extracellular serotonin by inhibiting reuptake
SERT [3]
  [3H]-labeled 5-HT release: rapidly increases extracellular serotonin by stimulating release

## NCCc1ccc(O)cc1 [p-Tyramine, reference compound]
[7]; positive control
  EC50: 1140 nM
  hTAAR1 Hill constant: 0.7453
